Assay results from US6888015B2, “Sphingolipid synthesis inhibitor” (Japan Science and Technology Agency, priority 2001, dated 2005).

Tests used:
[1] = test system: biosynthesis of phosphatidylcholine; assay: Metabolic labeling of lipids with [14C]choline; type: cell-based, Chinese hamster; settings: 1 μM, 33° C., 4 hours
Procedure: CHO cells are seeded at the density of 1.0×10^6 cell in 5 mL of F12 medium containing 10% NBS, by per 60-mm dish, and cultured at 33° C. overnight. Then, the medium is changed to 1.5 mL of Nutridoma medium if necessary, various drugs are added and incubated at 4° C. for 15 minutes. Then, after addition of [^14C] serine (0.75 μCi) or [^14 C] choline (1.0 μCi) to the medium, cells were incubated at 33° C. for various periods of time.
Cells are washed twice with 2 mL of cold phosphate-buffered saline (PBS), and lysed with 900 μL of 0.1% sodium dodecyl sulfate (SDS). Then, 800 μL and 20 μL of lysate are used for lipid extraction and determination of protein concentration, respectively.
For the analysis of the lipid labeled by [^14C] choline, the lipid is separated by one-dimensional TLC using chloroform/methanol/acetic acid/H2O (25:15:4:2, volume ratio) as a developing solvent. […]
Radioactive lipid separated on the TLC plates are detected with image analyzer depicted above. After the collection of gels from TLC plates by scraping, the radioactivity of each lipid is determined by liquid scintillation counting and normalized to the protein concentration of cells.

[2] = test system: conversion of Cer to SM in intact cells; assay: Conversion of [3H]Cer to [3H]SM in intact cells ([3H]sphingosine pulse-chase); type: cell-based, Chinese hamster; settings: 1 μM; chase at 33° C. up to 1 hour with fumonisin B1
Procedure: The measurement of conversion of [^3H] Cer to [^3H] SM in cells is performed by a modified method of the method disclosed in Document 1. That is, as the first step, cells are pulse-labeled in 1.5 mL of Nutridoma medium containing 1 μM D-erythro-[^3H] sphingosine (2.5 μCi). After washed, the cells are incubated in 1.5 mL of Nutridoma medium supplemented with or without 1 μM HPA-12 at 4° C. for 15 minutes, then incubated under the presence of 100 μM fumonisin B, at 33° C. for various periods of time for chase.
The lipids are extracted from the chased cells, and separated by TLC with a developing solvent consisting of chloroform/methanol/H2O (volume ratio, 65:25:4). Then, the radioactivity of each lipid is measured by the method mentioned above.
To examine the inhibitory effect of HPA-12 on the step of Cer-to-SM conversion specifically, metabolic labeling experiments with [^3H] sphingosine are carried out. When cells are labelled with [^3H] sphingosine at 15° C., [^3H] sphingosine is effectively N-acylated and converted to [^3H] Cer, but, [^3H] Cer is not converted to [^3H] SM at this temperature (Document 2). After the labeling with [^3H] sphingosine at low temperature to generate [^3H] Cer, the cells are treated with 1 μM HPA-12 at 4° C. for 15 minutes, and then incubated at 33° C. up to 1 hour for chase. During the chase, de novo synthesis of [^3H] […]

[3] = target: T1, GlcCer synthase (Cricetulus griseus, UniProt A0A9J7CH29); assay: GlcCer synthase enzyme assay, CHO membrane fraction; type: biochemical, Chinese hamster; settings: 20 μM; substrate C6-NBD-Cer
T1 construct: Membrane fraction prepared from CHO cells is used as an enzyme source; endogenous in cells; host or cells: CHO cells, membrane fraction
T1 sequence (A0A9J7CH29 1-394): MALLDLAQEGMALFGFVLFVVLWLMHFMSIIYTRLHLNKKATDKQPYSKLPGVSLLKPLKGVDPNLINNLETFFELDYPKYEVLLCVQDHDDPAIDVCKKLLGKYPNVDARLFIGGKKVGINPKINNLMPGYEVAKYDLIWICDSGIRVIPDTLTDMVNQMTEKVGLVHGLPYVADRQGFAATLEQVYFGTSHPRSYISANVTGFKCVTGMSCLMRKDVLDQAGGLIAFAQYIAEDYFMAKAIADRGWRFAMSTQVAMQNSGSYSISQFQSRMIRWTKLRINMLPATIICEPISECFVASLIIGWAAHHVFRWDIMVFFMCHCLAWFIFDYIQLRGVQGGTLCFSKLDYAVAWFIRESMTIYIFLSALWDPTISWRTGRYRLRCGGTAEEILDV
Procedure: Membrane fraction prepared from CHO cells is used as an enzyme source.
Enzyme assays of SM synthesis and GlcCer synthase are carried out by using C6-NBD-Cer as a substrate as disclosed in Document 6.

[4] = test system: CHO cells; assay: Contents of sphingolipids and phospholipids in cells; type: cell-based, Chinese hamster; settings: 2.5 μM, 2 days
Procedure: CHO cells are seeded at density of 10×10^6 cells in 20 mL of F12 medium containing 10% NBS by per 150-mm dish, and incubated at 33° C. overnight. Then, after washed twice with 10 mL of serum-free F 12 medium, the cells are incubated in 20 mL of Nutridoma medium supplemented with or without 2.5 μM HPA-12 for 2 days. Each medium is replaced every 24 hours. After washed with PBS, the cells are harvested by scraping, and re-suspended in PBS. Then, lipids are extracted from the cells.
For analysis of phospholipids, extracted lipids are separated by TLC with a solvent of chloroform/methanol/acetic acid/H2O (volume ratio, 25:15:4:2).
Phosphorous contents in phospholipids are measured by the method disclosed in Document 4.
Contents of GlcCer and N-acetyl neuraminil lactosylseramide (GM3) are determined by densitometric analysis of lipids stained with Coomassie Brilliant Blue disclosed in Document 5.
Cer contents are determined by using a sn-1,2-diacylglycerol assay reagent kit (Amersham Pharmcia Biotech).

[5] = test system: CHO cells; assay: Viability of cells (MTT); type: cell-based, Chinese hamster; settings: 10 μM; data not shown
Procedure: CHO cells are seeded at a density of 2.0×10^4 per one hole of a 48-hole culture plate in 500 μL of F12 medium containing 10% NBS, and cultivated at 33[…] overnight. Then, the medium is changed to 500 μL of Nutridoma medium containing various concentrations of HPA compounds at 33° C. for 24 hours, and the viability of cells are determined using MTT as disclosed in Document 9.

**Q.** What does the source list for CCCCCCCCCCCC(=O)NC(CO)CC(O)c1ccccc1 (stereo not shown) [HPA-12, N-(3-hydroxy-1-hydroxymethyl-3-phenylprol)dodecaneamide]?
**A.** level of [14C]PC vs untreated cells [1]: almost equal; level of [14C]SM vs drug-untreated control level [1]: about half; formation of [3H]GlcCer [2]: does not inhibit and rather increases; inhibition of formation of [3H]SM [2]: 50%; C6-NBD-GlcCer formed (GlcCer synthase activity) [3]: 325.9 ± 17.1 pmol/mg protein/10 minutes; inhibition of GlcCer synthase [3]: Neither of SM synthase nor GlcCer synthase is inhibited; content of GM3 [4]: 120 % of the drug-untreated contro; content of GlcCer [4]: 150 % of the drug-untreated contro; content of SM, lower than the drug-free control level by [4]: 30%; content of ceramide vs untreated [4]: no significant difference; Cer content ([4]; CHO cells): 0.40 ± 0.13 nmol/mg protein; GM3 content ([4]; CHO cells): 8.5 ± 0.8 nmol/mg protein; GlcCer content ([4]; CHO cells): 1.4 ± 0.1 nmol/mg protein; PC content (composition of phospholipids) ([4]; CHO cells): 47.5 ± 0.2 % of total lipids recovered; PE content (composition of phospholipids) ([4]; CHO cells): 30.6 ± 0.3 % of total lipids recovered; PI/PS content (composition of phospholipids) ([4]; CHO cells): 13.4 ± 0.3 % of total lipids recovered; SM content (composition of phospholipids) ([4]; CHO cells): 8.4 ± 0.1 % of total lipids recovered; content of total phospholipids ([4]; drug-treated cells): 315±2 nmol/mg protein; toxicity to CHO cells [5]: highly toxic
